Biological target: Full-length inactive AKT1 (Homo sapiens, UniProt P31749)
Test: Inactive Akt Alpha Screen Assay
Format: biochemical
Conditions: values not marked with "*"; read-out: Akt1 IC50, (AlphaScreen)
Method in brief: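 AlphaScreen read-out (excitation 640 nm, emission 570 nm) after 90 min incubation at room temperature in the dark. Signal comes from crosstide phosphorylation by AKT1, which was activated by added PDK1, MAPKAPK2, ATP and lipid vesicles, captured via phospho-AKT substrate antibody and streptavidin beads.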

Full-length inactive AKT1, sequence (P31749 whole entry): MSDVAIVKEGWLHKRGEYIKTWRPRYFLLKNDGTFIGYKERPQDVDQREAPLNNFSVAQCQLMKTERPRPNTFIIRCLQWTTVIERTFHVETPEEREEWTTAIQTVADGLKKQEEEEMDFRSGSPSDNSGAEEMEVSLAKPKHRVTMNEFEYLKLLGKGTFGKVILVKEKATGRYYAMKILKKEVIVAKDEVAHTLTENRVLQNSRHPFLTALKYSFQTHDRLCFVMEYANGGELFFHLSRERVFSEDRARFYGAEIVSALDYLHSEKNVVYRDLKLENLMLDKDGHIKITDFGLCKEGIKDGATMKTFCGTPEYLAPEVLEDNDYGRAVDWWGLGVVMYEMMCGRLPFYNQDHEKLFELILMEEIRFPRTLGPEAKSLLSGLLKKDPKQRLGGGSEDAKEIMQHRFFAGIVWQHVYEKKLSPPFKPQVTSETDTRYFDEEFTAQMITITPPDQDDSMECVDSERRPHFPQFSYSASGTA

| IC50 | Structure (SMILES) |
| --- | --- |
| 2.3 nM | Nc1ncccc1-c1nc2ccc(-c3cccc(N4CCOCC4)c3)nc2n1-c1ccc(C2(N)CCC2)cc1 [Example 390, 3-(3-(4-(1-aminocyclobutyl)phenyl)-5-(3-morpholinophenyl)-3H-imidazo[4,5-b]pyridin-2-yl)pyridin-2-amine] |
| 5 nM | CS(=O)(=O)c1cccc(-c2ccc3nc(-c4cccnc4N)n(-c4ccc(C5(N)CCC5)cc4)c3n2)c1 [Example 391, 3-(3-(4-(1-aminocyclobutyl)phenyl)-5-(3-(methylsulfonyl)phenyl)-3H-imidazo[4,5-b]pyridin-2-yl)pyridin-2-amine] |
| 7.1 nM | N#Cc1cccc(-c2ccc3nc(-c4cccnc4N)n(-c4ccc(C5(N)CCC5)cc4)c3n2)c1 [Example 392, 3-(3-(4-(1-aminocyclobutyl)phenyl)-2-(2-aminopyridin-3-yl)-3H-imidazo[4,5-b]pyridin-5-yl)benzonitrile] |
| 3.7 nM | Nc1ncccc1-c1nc2ccc(-c3ccccn3)nc2n1-c1ccc(C2(N)CCC2)cc1 [Example 393, 3-(3-(4-(1-aminocyclobutyl)phenyl)-5-(pyridin-2-yl)-3H-imidazo[4,5-b]pyridin-2-yl)pyridin-2-amine] |
| 3.9 nM | Nc1ncccc1-c1nc2ccc(-c3ccncc3)nc2n1-c1ccc(C2(N)CCC2)cc1 [Example 394, 3-(3-(4-(1-aminocyclobutyl)phenyl)-5-(pyridin-4-yl)-3H-imidazo[4,5-b]pyridin-2-yl)pyridin-2-amine] |
| 9.8 nM | Nc1ncccc1-c1nc2ccc(-c3cncnc3)nc2n1-c1ccc(C2(N)CCC2)cc1 [Example 395, 3-(3-(4-(1-aminocyclobutyl)phenyl)-5-(pyrimidin-5-yl)-3H-imidazo[4,5-b]pyridin-2-yl)pyridin-2-amine] |
| 3.2 nM | COc1cccc(-c2ccc3nc(-c4cccnc4N)n(-c4ccc(C5(N)CCC5)cc4)c3n2)c1 [Example 396, 3-(3-(4-(1-aminocyclobutyl)phenyl)-5-(3-methoxyphenyl)-3H-imidazo[4,5-b]pyridin-2-yl)pyridin-2-amine] |
| 3.8 nM | Nc1ncccc1-c1nc2ccc(-c3cccc4[nH]ccc34)nc2n1-c1ccc(C2(N)CCC2)cc1 [Example 397, 3-(3-(4-(1-aminocyclobutyl)phenyl)-5-(1H-indol-4-yl)-3H-imidazo[4,5-b]pyridin-2-yl)pyridin-2-amine] |
| 6.4 nM | CN(C)Cc1cccc(-c2ccc3nc(-c4cccnc4N)n(-c4ccc(C5(N)CCC5)cc4)c3n2)c1 [Example 398, 3-(3-(4-(1-aminocyclobutyl)phenyl)-5-(3-((dimethylamino)methyl)phenyl)-3H-imidazo[4,5-b]pyridin-2-yl)pyridin-2-amine] |
| 21 nM | CN(C)C(=O)c1ccc(-c2ccc3nc(-c4cccnc4N)n(-c4ccc(C5(N)CCC5)cc4)c3n2)cc1 [Example 399, 4-(3-(4-(1-aminocyclobutyl)phenyl)-2-(2-aminopyridin-3-yl)-3H-imidazo[4,5-b]pyridin-5-yl)-N,N-dimethylbenzamide] |
| 13 nM | CNC(=O)c1ccc(-c2ccc3nc(-c4cccnc4N)n(-c4ccc(C5(N)CCC5)cc4)c3n2)cc1 [Example 400, 4-(3-(4-(1-aminocyclobutyl)phenyl)-2-(2-aminopyridin-3-yl)-3H-imidazo[4,5-b]pyridin-5-yl)-N-methylbenzamide] |
| 6.4 nM | Nc1ncccc1-c1nc2ccc(-c3cnccn3)nc2n1-c1ccc(C2(N)CCC2)cc1 [Example 401, 3-(3-(4-(1-aminocyclobutyl)phenyl)-5-(pyrazin-2-yl)-3H-imidazo[4,5-b]pyridin-2-yl)pyridin-2-amine] |
| 2830 nM | CC(=O)Nc1ccc(-c2cnc3c(c2)nc(-c2cccnc2N)n3-c2cccc(CNC(=O)c3cccc(F)c3)c2)cc1 [Example 402, N-(3-(6-(4-acetamidophenyl)-2-(2-aminopyridin-3-yl)-3H-imidazo[4,5-b]pyridin-3-yl)benzyl)-3-fluorobenzamide] |
| 4.5 nM | CS(=O)(=O)Nc1ccc(-c2ccc3nc(-c4cccnc4N)n(-c4ccc(C5(N)CCC5)cc4)c3n2)cc1 [Example 403, N-(4-{3-[4-(1-aminocyclobutyl)phenyl]-2-(2-aminopyridin-3-yl)-3H-imidazo[4,5-b]pyridin-5-yl}phenyl)methanesulfonamide] |
| 7.8 nM | Nc1ncccc1-c1nc2ccc(-c3ccc(N4CCOCC4)nc3)nc2n1-c1ccc(C2(N)CCC2)cc1 [Example 404, 3-{3-[4-(1-aminocyclobutyl)phenyl]-5-(6-morpholin-4-ylpyridin-3-yl)-3H-imidazo[4,5-b]pyridin-2-yl}pyridin-2-amine] |
| 13 nM | CC(C)C(=O)Nc1cccc(-c2ccc3nc(-c4cccnc4N)n(-c4ccc(C5(N)CCC5)cc4)c3n2)c1 [Example 405, N-(3-{3-[4-(1-aminocyclobutyl)phenyl]-2-(2-aminopyridin-3-yl)-3H-imidazo[4,5-b]pyridin-5-yl}phenyl)-2-methylpropanamide] |
| 2.6 nM | Nc1ncccc1-c1nc2ccc(-c3cccc(NS(=O)(=O)C4CC4)c3)nc2n1-c1ccc(C2(N)CCC2)cc1 [Example 406, N-(3-{3-[4-(1-aminocyclobutyl)phenyl]-2-(2-aminopyridin-3-yl)-3H-imidazo[4,5-b]pyridin-5-yl}phenyl)cyclopropanesulfonamide] |

| IC50 | Structure (SMILES) |
| --- | --- |
| 2.8 nM | Cc1ccc(S(=O)(=O)Nc2cccc(-c3ccc4nc(-c5cccnc5N)n(-c5ccc(C6(N)CCC6)cc5)c4n3)c2)cc1 [Example 407, N-(3-{3-[4-(1-aminocyclobutyl)phenyl]-2-(2-aminopyridin-3-yl)-3H-imidazo[4,5-b]pyridin-5-yl}phenyl)-4-methylbenzenesulfonamide] |
| 2.4 nM | Nc1ncccc1-c1nc2ccc(-c3cc[nH]c3)nc2n1-c1ccc(C2(N)CCC2)cc1 [Example 408, 3-{3-[4-(1-aminocyclobutyl)phenyl]-5-(1H-pyrrol-3-yl)-3H-imidazo[4,5-b]pyridin-2-yl}pyridin-2-amine] |
| 5.3 nM | CN(C)c1cccc(-c2ccc3nc(-c4cccnc4N)n(-c4ccc(C5(N)CCC5)cc4)c3n2)c1 [Example 409, 3-{3-[4-(1-aminocyclobutyl)phenyl]-5-[3-(dimethylamino)phenyl]-3H-imidazo[4,5-b]pyridin-2-yl}pyridin-2-amine] |
| 9.7 nM | CN(C)c1ccc(-c2ccc3nc(-c4cccnc4N)n(-c4ccc(C5(N)CCC5)cc4)c3n2)cc1 [Example 410, 3-{3-[4-(1-aminocyclobutyl)phenyl]-5-[4-(dimethylamino)phenyl]-3H-imidazo[4,5-b]pyridin-2-yl}pyridin-2-amine] |
| 4.5 nM | COc1cc(OC)cc(-c2ccc3nc(-c4cccnc4N)n(-c4ccc(C5(N)CCC5)cc4)c3n2)c1 [Example 411, 3-{3-[4-(1-aminocyclobutyl)phenyl]-5-(3,5-dimethoxyphenyl)-3H-imidazo[4,5-b]pyridin-2-yl}pyridin-2-amine] |
| 4 nM | COCc1cccc(-c2ccc3nc(-c4cccnc4N)n(-c4ccc(C5(N)CCC5)cc4)c3n2)c1 [Example 412, 3-{3-[4-(1-aminocyclobutyl)phenyl]-5-[3-(methoxymethyl)phenyl]-3H-imidazo[4,5-b]pyridin-2-yl}pyridin-2-amine] |
| 7 nM | COc1ccc(F)c(-c2ccc3nc(-c4cccnc4N)n(-c4ccc(C5(N)CCC5)cc4)c3n2)c1 [Example 413, 3-{3-[4-(1-aminocyclobutyl)phenyl]-5-(2-fluoro-5-methoxyphenyl)-3H-imidazo[4,5-b]pyridin-2-yl}pyridin-2-amine] |
| 4.9 nM | COc1ccc(-c2ccc3nc(-c4cccnc4N)n(-c4ccc(C5(N)CCC5)cc4)c3n2)cc1OC [Example 414, 3-{3-[4-(1-aminocyclobutyl)phenyl]-5-(3,4-dimethoxyphenyl)-3H-imidazo[4,5-b]pyridin-2-yl}pyridin-2-amine] |
| 13 nM | Nc1ncccc1-c1nc2cccnc2n1-c1ccc(C2(N)CCC2)cc1 [Example 415, 3-{3-[4-(1-aminocyclobutyl)phenyl]-3H-imidazo[4,5-b]pyridin-2-yl}pyridin-2-amine] |
| 4.2 nM | Nc1ncccc1-c1nc2ccc(-c3ccc4scnc4c3)nc2n1-c1ccc(C2(N)CCC2)cc1 [Example 416, 3-{3-[4-(1-aminocyclobutyl)phenyl]-5-(1,3-benzothiazol-5-yl)-3H-imidazo[4,5-b]pyridin-2-yl}pyridin-2-amine] |
| 2 nM | COc1cc(-c2ccc3nc(-c4cccnc4N)n(-c4ccc(C5(N)CCC5)cc4)c3n2)ccc1N [Example 417, 3-{3-[4-(1-aminocyclobutyl)phenyl]-5-(4-amino-3-methoxyphenyl)-3H-imidazo[4,5-b]pyridin-2-yl}pyridin-2-amine] |
| 8.2 nM | Nc1ncccc1-c1nc2ccc(-c3cc[nH]n3)nc2n1-c1ccc(C2(N)CCC2)cc1 [Example 418, 3-{3-[4-(1-aminocyclobutyl)phenyl]-5-(1H-pyrazol-3-yl)-3H-imidazo[4,5-b]pyridin-2-yl}pyridin-2-amine] |
| 2.7 nM | COc1cc(-c2ccc3nc(-c4cccnc4N)n(-c4ccc(C5(N)CCC5)cc4)c3n2)ccc1O [Example 419, 4-{3-[4-(1-aminocyclobutyl)phenyl]-2-(2-aminopyridin-3-yl)-3H-imidazo[4,5-b]pyridin-5-yl}-2-methoxyphenol] |
| 5.4 nM | COc1cc(F)cc(-c2ccc3nc(-c4cccnc4N)n(-c4ccc(C5(N)CCC5)cc4)c3n2)c1 [Example 420, 3-{3-[4-(1-aminocyclobutyl)phenyl]-5-(3-fluoro-5-methoxyphenyl)-3H-imidazo[4,5-b]pyridin-2-yl}pyridin-2-amine] |
| 17 nM | COc1cccc(-c2ccc3nc(-c4cccnc4N)n(-c4ccc(C5(N)CCC5)cc4)c3n2)c1F [Example 421, 3-{3-[4-(1-aminocyclobutyl)phenyl]-5-(2-fluoro-3-methoxyphenyl)-3H-imidazo[4,5-b]pyridin-2-yl}pyridin-2-amine] |
| 11 nM | CCCOc1cccc(-c2ccc3nc(-c4cccnc4N)n(-c4ccc(C5(N)CCC5)cc4)c3n2)c1 [Example 422, 3-{3-[4-(1-aminocyclobutyl)phenyl]-5-(3-propoxyphenyl)-3H-imidazo[4,5-b]pyridin-2-yl}pyridin-2-amine] |

Reference: patent US8501770B2 (ArQule, Inc., priority 2009, dated 2013)
